# Results: patent US7473688B2, “Indolobenzazepine HCV NS5B inhibitors” (Bristol-Myers Squibb Company, priority 2005, dated 2009)
# Like-named read-outs stand apart in the source and are kept apart here.
# What was measured:
# HCV NS5B = target: T1, HCV NS5B (Hepatitis C virus genotype 1b, UniProt Q9WMX2); assay: HCV NS5B RdRp enzyme assay (preincubation protocol); format: biochemical
# T1 construct: The protein was expressed with an 18 amino acid C-terminal truncation to enhance the solubility; made in house; host or cells: E. coli BL21 (DE3), pET21a
# Method: HCV NS5B RdRp cloning, expression, and purification. The cDNA encoding the NS5B protein of HCV, genotype 1b, was cloned into the pET21a expression vector. The protein was expressed with an 18 amino acid C-terminal truncation to enhance the solubility. The E. coli competent cell line BL21 (DE3) was used for expression of the protein. Cultures were grown at 37° C. for ˜4 hours until the cultures reached an optical density of 2.0 at 600 nm. The cultures were cooled to 20° C. and induced with 1 mM IPTG. Fresh ampicillin was added to a final concentration of 50 μg/ml and the cells were grown overnight at 20° C.
# Cell pellets (3L) were lysed for purification to yield 15-24 mgs of purified NS5B. The lysis buffer consisted of 20 mM Tris-HCl, pH 7.4, 500 mM NaCl, 0.5% triton X-100, 1 mM DTT, 1 mM EDTA, 20% glycerol, 0.5 mg/ml lysozyme, 10 mM MgCl2, 15 ug/ml deoxyribonuclease I, and Complete TM protease inhibitor tablets (Roche). After addition of the lysis buffer, frozen cell pellets were resuspended using a tissue homogenizer. To reduce the viscosity of the sample, aliquots of the lysate were sonicated on ice using a microtip attached to a Branson sonicator. The sonicated lysate was centrifuged at 100,000×g for 1 hr at 4° C. and filtered through a 0.2 μm filter unit (Corning).
# The protein was purified using three sequential chromatography steps: Heparin sepharose CL-6B, polyU sepharose 4B, and Hitrap SP sepharose (Pharmacia). The chromatography buffers were identical to the lysis buffer but contained no lysozyme, deoxyribonuclease I, MgCl2 or protease inhibitor and the NaCl concentration of the buffer was adjusted according to the requirements for charging the protein onto the column. Each column was eluted with a NaCl gradient which varied in length from 5-50 column volumes depending on the column type. After the final chromatography step, the resulting purity of the enzyme is >90% based on SDS-PAGE analysis. The enzyme was aliquoted and stored at −80° C.
# Standard HCV NS5B RdRp enzyme assay. HCV RdRp genotype 1b assays were run in a final volume of 60 μl in 96 well plates (Costar 3912). The assay buffer is composed of 20 mM Hepes, pH 7.5, 2.5 mM KCl, 2.5 mM MgCl2, 1 mM DTT, 1.6 U RNAse inhibitor (Promega N2515), 0.1 mg/ml BSA (Promega R3961), and 2% glycerol. All compounds were serially diluted (3-fold) in DMSO and diluted further in water such that the final concentration of DMSO in the assay was 2%. HCV RdRp genotype 1b enzyme was used at a final concentration of 28 nM. A polyA template was used at 6 nM, and a biotinylated oligo-dT12 primer was used at 180 nM final concentration. Template was obtained commercially (Amersham 27-4110). Biotinylated primer was prepared by Sigma Genosys. 3H-UTP was used at 0.6 μCi (0.29 μM total UTP). Reactions were initiated by the addition of enzyme, incubated at 30° C. for 60 min, and stopped by adding […] of 50 mM EDTA containing SPA beads (4 μg/μl, Amersham RPNQ 0007). Plates were read on a Packard Top Count NXT after >1 hr incubation at room temperature.
# Modified HCV NS5B RdRp enzyme assay. A modified enzyme assay was performed essentially as described for the standard enzyme assay except for the following: The biotinylated oligo dT12 primer was precaptured on streptavidin-coated SPA beads by mixing primer and beads in assay buffer and incubating at room temperature for one hour. Unbound primer was removed after centrifugation. The primer-bound beads were resuspended in 20 mM Hepes buffer, pH 7.5 and used in the assay at final concentrations of […] primer and 0.67 μg/μl beads. Order of addition in the assay: Enzyme (14 nM) was added to diluted compound followed by the addition of a mixture of template (0.2 nM), 3H-UTP (0.6 μCi, 0.29 μM), and primer-bound beads, to initiate the reaction; concentrations given are final. Reactions were allowed to proceed for 4 hours at 30° C.
# IC50 values for compounds were determined using seven different [I]. […]
# HCV replicon = HCV replicon FRET assay; format: cell-based; conditions: Hepatitis C virus
# Text: FRET Assay Preparation. To perform the HCV FRET screening assay, 96-well cell culture plates were used. The FRET peptide (Anaspec, Inc.) (Taliani et al., Anal. Biochem. 1996, 240, 60-67) contains a fluorescence donor, EDANS, near one end of the peptide and an acceptor, DABCYL, near the other end. The fluorescence of the peptide is quenched by […] resonance energy transfer (RET) between the donor and the acceptor, but as the NS3 protease cleaves the peptide the products are released from RET quenching and the fluorescence of the donor becomes apparent. The assay reagent was made as follows: 5× cell Luciferase cell culture lysis reagent from Promega (#E153A) diluted to 1× with dH2O, NaCl added to 150 mM final, the FRET peptide diluted to 20 uM final from a 2 mM stock.
# To prepare plates, HCV replicon cells, with or without a Renilla luciferase reporter gene, were trypsinized and placed into each well of a 96-well plate with titrated test compounds added in columns 3 through 12; columns 1 and 2 contained a control compound (HCV protease inhibitor), and the bottom row contained cells without compound. The plates were then placed in a CO2 incubator at 37° C.
# Assays. Subsequent to addition of the test compounds described above (FRET Assay Preparation), at various times the plate was removed and Alamar blue solution (Trek Diagnostics, #00-100) was added per well as a measure of cellular toxicity. After reading in a Cytoflour 4000 instrument (PE Biosystems), plates were rinsed with PBS and then used for FRET assay by the addition of 30 ul of the FRET peptide assay reagent described above (FRET Assay Preparation) per well. The plate was then placed into the Cytoflour 4000 instrument which had been set to 340 excite/490 emission, automatic mode for 20 cycles and the plate read in a kinetic mode. Typically, the signal to noise using an endpoint analysis after the reads was at least three-fold. Alternatively, after Alamar blue reading, plates were rinsed with PBS, 50 ul of DMEM (high glucose) without phenol red was added and plates were then used for luciferase assay using the Promega Dual-Glo Luciferase Assay System.
# Compound analysis was determined by quantification of the relative HCV replicon inhibition and the relative cytotoxicity values. To calculate cytoxicity values, the average Alamar Blue fluorescence signals from the control wells were set as 100% non-toxic. The individual signals in each of the compound test wells were then divided by the average control signal and multiplied by 100% to determine […]. To calculate the HCV replicon inhibition values, an average background value was obtained from the two wells containing the highest amount of HCV protease inhibitor at the end of the assay period. These numbers were similar to those obtained from naïve Huh-7 cells.
# The background numbers were then subtracted from the average signal obtained from the control wells and this number was used as 100% activity. The individual signals in each of the compound test wells were then divided by the averaged control values after background subtraction and multiplied by 100% to determine percent activity. EC50 values for a protease inhibitor titration were calculated as the concentration which caused a 50% reduction in FRET or luciferase activity. The two numbers generated for the compound plate, percent cytoxicity and percent activity were used to determine compounds of interest for further analysis.
# [1] = Table 1, FRET assay, read-out: EC50*
# T1 sequence (Q9WMX2 2420-2992): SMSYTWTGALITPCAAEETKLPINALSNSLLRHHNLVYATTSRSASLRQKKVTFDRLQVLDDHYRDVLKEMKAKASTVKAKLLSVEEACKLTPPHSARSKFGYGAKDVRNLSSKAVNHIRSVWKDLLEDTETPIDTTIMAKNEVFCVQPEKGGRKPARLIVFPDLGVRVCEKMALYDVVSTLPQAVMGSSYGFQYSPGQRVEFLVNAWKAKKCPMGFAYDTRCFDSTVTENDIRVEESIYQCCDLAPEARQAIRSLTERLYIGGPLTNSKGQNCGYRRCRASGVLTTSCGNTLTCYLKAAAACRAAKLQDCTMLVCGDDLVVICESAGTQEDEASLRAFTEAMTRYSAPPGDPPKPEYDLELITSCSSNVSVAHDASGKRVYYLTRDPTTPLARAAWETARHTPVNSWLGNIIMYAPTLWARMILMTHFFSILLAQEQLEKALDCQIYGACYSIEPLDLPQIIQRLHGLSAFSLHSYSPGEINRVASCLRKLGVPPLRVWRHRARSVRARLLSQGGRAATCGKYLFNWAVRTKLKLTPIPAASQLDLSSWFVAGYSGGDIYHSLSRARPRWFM
Structure (SMILES),"IC50 (HCV NS5B; Table 1, read-out: IC50*) [nM]",EC50 (HCV replicon; [1]) [nM],other results
O=C(O)C1=Cc2ccccc2-c2c(C3CCCCC3)c3ccc(C(=O)NS(=O)(=O)N4CCOCC4)cc3n2C1,10 to 1000,> 10000,
COc1ccc(S(=O)(=O)NC(=O)c2ccc3c(C4CCCCC4)c4n(c3c2)CC(C(=O)N2CCOCC2)=Cc2ccccc2-4)cc1,10 to 1000,70 to 1000,
O=C(NS(=O)(=O)N1CCOCC1)c1ccc2c(C3CCCCC3)c3n(c2c1)CC(C(=O)N1CCN(C(=O)CO)CC1)=Cc1ccccc1-3,10 to 1000,70 to 1000,
COc1ccc2c(c1)C=C(C(=O)N1CCOCC1)Cn1c-2c(C2CCCCC2)c2ccc(C(=O)NS(=O)(=O)N3CCN(C)CC3)cc21,10 to 1000,70 to 1000,
C[C@@H]1CN(C(=O)C2=Cc3ccccc3-c3c(C4CCCCC4)c4ccc(C(=O)NS(=O)(=O)N5CCN(C)CC5)cc4n3C2)C[C@H](C)O1,10 to 1000,70 to 1000,
O=C(NCc1cnn[nH]1)c1ccc2c(C3CCCCC3)c3n(c2c1)CC(C(=O)N1CCOCC1)=Cc1ccccc1-3,10 to 1000,70 to 1000,
C[C@@H]1CN(C(=O)C2=Cc3ccccc3-c3c(C4CCCCC4)c4ccc(C(=O)NCCN5CCOCC5)cc4n3C2)C[C@H](C)O1,10 to 1000,1000 to 10000,
C[C@@H]1CN(C(=O)C2=Cc3ccccc3-c3c(C4CCCCC4)c4ccc(C(=O)NCCN(C)C)cc4n3C2)C[C@H](C)O1,10 to 1000,1000 to 10000,
Cn1ncc(CNC(=O)c2ccc3c(C4CCCCC4)c4n(c3c2)CC(C(=O)N2CCOCC2)=Cc2ccccc2-4)n1,10 to 1000,1000 to 10000,
O=C(O)c1ccc2c(C3CCCCC3)c3n(c2c1)CC(C(=O)Nn1cnnc1)Cc1ccccc1-3 (stereo not shown),10 to 1000,> 10000,
COC(=O)c1ccc2c(C3CCCCC3)c3n(c2c1)CC(C(=O)N(C)CC1CCCN(C)C1)Cc1ccccc1-3 (stereo not shown),10 to 1000,70 to 1000,
CN1CCCC(CN(C)C(=O)C2Cc3ccccc3-c3c(C4CCCCC4)c4ccc(C(=O)O)cc4n3C2)C1 (stereo not shown),10 to 1000,70 to 1000,
CN1CCCC(CN(C)C(=O)C2Cc3ccccc3-c3c(C4CCCCC4)c4ccc(C(=O)NS(=O)(=O)N(C)C)cc4n3C2)C1 (stereo not shown),10 to 1000,< 20,
COC(=O)c1ccc2c(C3CCCCC3)c3n(c2c1)CC(C(=O)N(C)CC1CCCN(C)C1)=Cc1ccccc1-3 (stereo not shown),10 to 1000,1000 to 10000,
CN1CCCC(CN(C)C(=O)C2=Cc3ccccc3-c3c(C4CCCCC4)c4ccc(C(=O)N(C)CC5CCCN(C)C5)cc4n3C2)C1 (stereo not shown),10 to 1000,1000 to 10000,
CN1CCCC(CN(C)C(=O)C2=Cc3ccccc3-c3c(C4CCCCC4)c4ccc(C(=O)O)cc4n3C2)C1 (stereo not shown),10 to 1000,70 to 1000,
COC(=O)c1ccc2c(C3CCCCC3)c3n(c2c1)CC(C(=O)Nc1nccs1)=Cc1ccccc1-3,,1000 to 10000,

Structure (SMILES),"IC50 (HCV NS5B; Table 1, read-out: IC50*) [nM]",EC50 (HCV replicon; [1]) [nM],other results
COC(=O)c1ccc2c(C3CCCCC3)c3n(c2c1)CC(C(=O)N1CCC(N2C(=O)Cc4ccccc42)CC1)=Cc1ccccc1-3,,1000 to 10000,
COC(=O)c1ccc2c(C3CCCCC3)c3n(c2c1)CC(C(=O)N1CCC(NC(C)=O)CC1)=Cc1ccccc1-3,,1000 to 10000,
O=C(O)c1ccc2c(C3CCCCC3)c3n(c2c1)CC(C(=O)N1CCC2(CC1)OCCO2)=Cc1ccccc1-3,,,"IC50 (HCV NS5B; IC50*, Table 1): 10 to 1000 nM; EC50 (HCV replicon): 70 to 1000 nM"
CN(C)S(=O)(=O)NC(=O)c1ccc2c(C3CCCCC3)c3n(c2c1)CC(C(=O)N1CCC2(CC1)OCCO2)=Cc1ccccc1-3,,,"IC50 (HCV NS5B; IC50*, Table 1): 10 to 1000 nM; EC50 (HCV replicon): 70 to 1000 nM"
COC(=O)c1ccc2c(C3CCCCC3)c3n(c2c1)CC(C(=O)N1CCC(N2CCOCC2)CC1)=Cc1ccc(Cl)cc1-3,,1000 to 10000,
CN(C)S(=O)(=O)NC(=O)c1ccc2c(C3CCCCC3)c3n(c2c1)CC(C(=O)N1CCC(=O)CC1)=Cc1ccccc1-3,,,"IC50 (HCV NS5B; IC50*, Table 1): 10 to 1000 nM; EC50 (HCV replicon): 70 to 1000 nM"
COC(=O)c1ccc2c(C3CCCCC3)c3n(c2c1)CC(C(=O)N1CC[C@@H](F)C1)=Cc1ccccc1-3,,> 370,
COC(=O)c1ccc2c(C3CCCCC3)c3n(c2c1)C/C(=N/O)Cc1ccccc1-3,,> 10000,
C[C@@H]1CN(CCNC(=O)C2=Cc3ccccc3-c3c(C4CCCCC4)c4ccc(C(=O)NS(=O)(=O)N(C)C)cc4n3C2)C[C@H](C)O1 [drawing 148],10 to 1000,,
C[C@@H]1CN(C(=O)NC2Cc3ccccc3-c3c(C4CCCCC4)c4ccc(C(=O)O)cc4n3C2)C[C@H](C)O1 (stereo partly shown) [drawing 151],10 to 1000,,
CN(C)S(=O)(=O)NC(=O)c1ccc2c(C3CCCCC3)c3n(c2c1)CC(NC(=O)N1CCOCC1)Cc1ccccc1-3 (stereo not shown) [drawing 153],10 to 1000,,
CN(C)S(=O)(=O)NC(=O)c1ccc2c(C3CCCCC3)c3n(c2c1)CC(NC(=O)N1CCOCC1)Cc1ccccc1-3 (stereo not shown) [drawing 155],10 to 1000,,
CC(=O)NN(C)C(=O)C1=Cc2ccccc2-c2c(C3CCCCC3)c3ccc(C(=O)O)cc3n2C1 [drawing 156],10 to 1000,,
O=C(NCc1cnn[nH]1)c1ccc2c(C3CCCCC3)c3n(c2c1)CC(C(=O)N1CCC(N2CCOCC2)CC1)=Cc1ccccc1-3 [drawing 204],10 to 1000,,
COc1ccc2c(c1)C[C@@H](C(=O)N1CCC[C@H](OC(C)=O)C1)Cn1c-2c(C2CCCCC2)c2ccc(C(=O)NS(=O)(=O)N(C)C)cc21 [drawing 320],,,"IC50 (HCV NS5B; Table 1a, read-out: IC50*): 10 to 1000 nM"
COc1ccc2c(c1)C[C@@H](C(=O)N1CCC[C@H](OC(C)=O)C1)Cn1c-2c(C2CCCCC2)c2ccc(C(=O)NS(=O)(=O)N(C)C)cc21 [drawing 326],,,"IC50 (HCV NS5B; Table 1a, read-out: IC50*): 10 to 1000 nM"
